The values below come from patent US6894049B1, “Platinum complexes as antitumor agents” (AnorMED, Inc., priority 2000, dated 2005).

One may read the Aqueous Solubility as how much of the substance goes into solution per volume.

Like-named read-outs stand apart in the source and are kept apart here. Where only a bound is given, the exact number is not on record here.

Data set [1] has as its system 41MR. As to the kind of experiment: Cell proliferation, cisplatin-resistant human cancer cell line 41MR. Particulars: for resistance factor: 41MR/41M, in brackets; for IC50: 41MR, read-out: concentration necessary to achieve a 50% decrease in cell proliferation. The format is cell-based. As for the experimental part:
(§1) The complexes of the invention were tested against human cancer cell lines grown in cell culture according to established testing procedures (described by Holford, et al., British J. Cancer 1998 77(3) 366-373). The results are given in concentrations (μM) necessary to achieve a 50% decrease in cell proliferation, with resistance factors in brackets for the cisplatin-resistant cell lines.

In data set [2] the test system is CH1. Nature of the data set: Cell proliferation, human cancer cell line CH1. The format is cell-based. Particulars: read-out: concentration necessary to achieve a 50% decrease in cell proliferation. As for the experimental part:
as §1

In data set [3] the test system is CH1R. Nature of the data set: Cell proliferation, cisplatin-resistant human cancer cell line CH1R. The format is cell-based. Particulars: for resistance factor: CH1R/CH1, in brackets; for IC50: CH1R, read-out: concentration necessary to achieve a 50% decrease in cell proliferation. How it is done: as §1
Data set [4] has as its system 41M. Nature of the data set: Cell proliferation, human cancer cell line 41M. Format: cell-based. Particulars: read-out: concentration necessary to achieve a 50% decrease in cell proliferation. As for the experimental part:
as §1

The subject of data set [5] is A2780. As to the kind of experiment: Cell proliferation, human cancer cell line A2780. Particulars: read-out: concentration necessary to achieve a 50% decrease in cell proliferation. The format is cell-based. How it is done: as §1
Data set [6] has as its system A2780R. Nature of the data set: Cell proliferation, cisplatin-resistant human cancer cell line A2780R. Format: cell-based. Particulars: for resistance factor: A2780R/A2780, in brackets; for IC50: A2780R, read-out: concentration necessary to achieve a 50% decrease in cell proliferation. As for the experimental part: as §1
The nature of data set [7]: Maximum tolerated dose in mice. The format is in vivo.
For data set [8] the following is noted: background statement; cited from earlier work.
The nature of data set [9]: Aqueous solubility at ambient conditions. The format is physicochemical.

Turning to `Cc1[nH]cc[n+]1[Pt-2]([NH3+])([Cl])[Cl]` [Example 8], the resistance factor in data set [1] is recorded as 0.8; in data set [3] it was 2.5. In addition, the IC50 in [1] was 16.5 µM; in data set [2], 5.2 µM; in [3] it was 12.5 µM; in data set [4] it was 21 µM.

Regarding `Cc1cc(C)[n+]([Pt-2]([NH3+])([Cl])[Cl])[nH]1` [Example 1, (SP-4-3)-amminedichloro(3.5-dimethylpyrazole)platinum(II)], the IC50 in data set [5] is 2.7 µM; in [1], 4.5 µM; in [6], 9.2 µM; in [2], 2.05 µM; in [3], 3.8 µM; in [4] it was 3.5 µM. Also, the resistance factor in data set [1] is on record as 1.3; in data set [6], 3.4; in [3], 1.9.

On to `CCCC(=O)[O][Pt]([NH2])([Cl])([Cl])([NH]C1CCCCC1)[O]C(=O)CCC` [bis-butyrato-ammine(cyclohexylamine)dichloroplatinum(IV), reference compound], for which the values for the resistance factor in data set [1] and in data set [3] were 0.67 and 3.7, respectively. Also, the IC50 stood at 0.048 µM in [1], 0.0066 µM in data set [2], 0.024 µM in data set [3] and 0.072 µM in data set [4].

In the case of `Cc1n(C)cc[n+]1[Pt-2]([NH3+])([OH])([OH])([Cl])[Cl]` [Example 15], the IC50 in [5] is 13.5 µM; in data set [1], 21 µM; in data set [6] it was more than 100 µM; in [2], 12 µM; in data set [3], 16.5 µM; in [4], 23 µM. Besides, the values for the resistance factor in data set [1], in data set [6] and in data set [3] were 0.9, more than 7.4 and 1.4, respectively.

Consider `Cc1cc(C)[n+]([Pt-2]([NH3+])([Cl])[Cl])n1C` [Example 2, (SP-4-3)-amminedichloro(1,3,5-trimethylpyrazole)platinum(II)], for which the “maximum tolerated dose (MTD)” value in data set [7] is “greater than 50 mg/Kg”. Also, the IC50 in data set [5] was 8.5 µM; in data set [1], 15.5 µM; in [6], 15.5 µM; in [2] it was 9.2 µM; in data set [3], 11 µM; in data set [4] it was 8.5 µM. Further, the resistance factor in [1] was found to be 1.8; in [6], 1.8; in data set [3], 1.2. The “decrease in resistance factor” value in data set [6] (A2780/A2780R, compared to cis-ammine(2-methylpyridine)dichloroplatinum(II)) is recorded as 2.6 fold.

`[NH2][Pt]1([NH2])[O]C(=O)C2(CCC2)C(=O)[O]1` [carboplatin, diammine[1,1-cyclobutanedicarboxylato (2-)]-O,O′-platinum(II), reference compound]: the IC50 in data set [5] amounted to 1.8 µM; in data set [1], 8.8 µM; in [6] it was 25.9 µM; in data set [2], 1.3 µM; in data set [3] it was 6 µM; in [4] it was 3.3 µM. For the same compound, the resistance factor in [1] turned out to be 2.7; in [3], 4.5. In [8], the Aqueous Solubility was 14000 µg/mL.

Take `Cc1n(C)cc[n+]1[Pt-2]([NH3+])([Cl])[Cl]` [Example 7]: the IC50 was 7.1 µM in data set [5]; 15 µM in data set [1]; 17.5 µM in [6]; 8.3 µM in data set [2]; 12 µM in data set [3]; 9.3 µM in data set [4]. The resistance factor in data set [1] worked out at 1.6; in data set [6], 2.5; in data set [3], 1.4.

Turning to `Cn1cc[n+]([Pt-2]([NH3+])([Cl])[Cl])c1` [Example 3], the IC50 is 6.4 µM in [5]; 12.5 µM in [1]; 16.5 µM in data set [6]; 7.6 µM in data set [2]; 10.5 µM in [3]; 7.4 µM in data set [4]. For the same compound, the resistance factor worked out at 1.7 in data set [1], 2.6 in [6] and 1.4 in [3].

For `Cc1ncc[n+]([Pt-2]([NH3+])([Cl])[Cl])c1C` [Example 6], the IC50 in data set [5] turned out to be 3.4 µM; in data set [1], 6.5 µM; in data set [6] it was 17.5 µM; in [2], 3.2 µM; in data set [3], 5.4 µM; in data set [4] it was 6.6 µM. The resistance factor was found to be 5.1 in data set [6] and 1.7 in data set [3].

As to `Cc1cc(C)[n+]([Pt-2]([NH3+])([Cl])[Cl])o1` [Example 4], in data set [9], the “Aqueous Solubility” value amounted to 1270 µg/mL. Further, the IC50 is 3.7 µM in data set [5]; 6 µM in data set [1]; 23.5 µM in [6]; 3.2 µM in data set [2]; 8 µM in data set [3]; 8 µM in data set [4]. For the same compound, the values for the resistance factor in data set [6] and in [3] were 6.4 and 2.5, respectively.

On to “cis-ammine(2-methylpyridine)dichloroplatinum(II) [reference compound]”, for which the IC50 in data set [5] was determined as 2.5 µM; in data set [1], 6 µM; in data set [6], 12 µM; in data set [2] it was 2.2 µM; in data set [3] it was 2.1 µM; in data set [4], 5.6 µM. The resistance factor in data set [1] amounted to 1.1; in data set [6], 4.8; in [3] it was 1.

Take `Cc1c[n+]([Pt-2]([NH3+])([Cl])[Cl])c(C)cn1` [Example 5]: the IC50 in data set [5] stood at 6 µM; in [1], 9 µM; in data set [6], 35 µM; in data set [2], 5 µM; in data set [3], 8 µM; in data set [4] it was 11.5 µM. Besides, the resistance factor in [6] turned out to be 5.8; in data set [3], 1.6.

Take `CC(=O)[O][Pt-2]([NH3+])([Cl])([Cl])([O]C(C)=O)[n+]1ccnc(C)c1C` [Example 14, (OC-6-43)-amminedichlorodiacetato-(2,3-dimethylpyrazine)platinum(IV)]: the values for the resistance factor in [1] and in data set [3] were 1.2 and 3.2, respectively. For the same compound, the IC50 in [1] was 36 µM; in data set [2], 9.4 µM; in data set [3] it was 30 µM; in data set [4] it was 29 µM.

Regarding `Cc1oc(C)[n+]([Pt-2]([NH3+])([Cl])[Cl])c1C` [Example 10], the IC50 in data set [5] stood at 9.8 µM; in data set [1], 11.5 µM; in [6], 40 µM; in data set [2] it was 5.2 µM; in [3] it was 9.4 µM; in data set [4] it was 11.8 µM. Besides, the resistance factor in data set [6] is listed as 4.1; in data set [3] it was 1.8.

For the compound `Cc1cc(C)[n+]([Pt-2]([NH3+])([OH])([OH])([Cl])[Cl])[nH]1` [Example 11, (OC-6-43)amminedichlorodihydroxo-(3.5-dimethylpyrazole)platinum(IV)], the IC50 amounted to 7.2 µM in data set [5]; 8.2 µM in data set [1]; 37 µM in data set [6]; 2 µM in data set [2]; 5 µM in data set [3]; 11 µM in data set [4]. The resistance factor in data set [6] worked out at 5.1; in data set [3] it was 2.5.

As to `CC(=O)[O][Pt]([NH2])([Cl])([Cl])([NH]C1CCCCC1)[O]C(C)=O` [bis-acetato-ammine(cyclohexylamine)dichloroplatinum(IV), reference compound], in data set [9], the “Aqueous Solubility” value is less than 1000 µg/mL. The IC50 in data set [5] was found to be 0.4 µM; in [1] it was 0.6 µM; in data set [6], 1.84 µM; in data set [3], 0.4 µM; in data set [4] it was 0.5 µM. Also, the resistance factor in data set [1] came to 1.2; in [6] it was 4.6; in data set [3], 4.

For the compound `N.N.[Cl][Pt][Cl]` [cisplatin, [PtCl2(NH3)2], reference compound], in [7], the “maximum tolerated dose (MTD)” value is 11.3 mg/kg. Also, the IC50 in data set [5] stood at 0.33 µM; in [1], 1.2 µM; in data set [6], 5.2 µM; in [2] it was 0.11 µM; in data set [3], 0.71 µM; in data set [4], 0.26 µM. Further, the results for the resistance factor in data set [1] and in data set [3] were 4.6 and 6.5, respectively.

As for `Cn1cc[n+]([Pt-2]([NH3+])([OH])([OH])([Cl])[Cl])c1` [Example 12, (OC-6-43)-amminedichlorodihydroxo-(1-methylimidazole)platinum(IV)], the IC50 came to 17 µM in [5]; 45 µM in [1]; 77 µM in data set [6]; 13 µM in data set [2]; 24.5 µM in data set [3]; 23.5 µM in data set [4]. In addition, the resistance factor in [1] came out at 1.9; in [6], 4.5; in data set [3] it was 1.9.

As for `Cc1c[n+]([Pt-2]([NH3+])([OH])([OH])([Cl])[Cl])c(C)[nH]1` [Example 16], the IC50 in data set [5] was 12.5 µM; in [1], 28 µM; in data set [6] it was more than 100 µM; in [2] it was 10 µM; in data set [3], 21 µM; in data set [4] it was 19 µM. Also, the resistance factor in [1] was 1.5; in [6], more than 8; in [3] it was 2.1.
